{
  "source": "paper PMC6095690",
  "about": "“Coalescing beneficial host and deleterious antiparasitic actions as an antischistosomal strategy” (eLife, 2018)",
  "key": {"Sm.5HTRL [1]": {"molecular_target": "T1, Sm.5HTRL (Schistosoma mansoni, UniProt A0A173FEI8)", "T1 sequence (A0A173FEI8 1-547)": "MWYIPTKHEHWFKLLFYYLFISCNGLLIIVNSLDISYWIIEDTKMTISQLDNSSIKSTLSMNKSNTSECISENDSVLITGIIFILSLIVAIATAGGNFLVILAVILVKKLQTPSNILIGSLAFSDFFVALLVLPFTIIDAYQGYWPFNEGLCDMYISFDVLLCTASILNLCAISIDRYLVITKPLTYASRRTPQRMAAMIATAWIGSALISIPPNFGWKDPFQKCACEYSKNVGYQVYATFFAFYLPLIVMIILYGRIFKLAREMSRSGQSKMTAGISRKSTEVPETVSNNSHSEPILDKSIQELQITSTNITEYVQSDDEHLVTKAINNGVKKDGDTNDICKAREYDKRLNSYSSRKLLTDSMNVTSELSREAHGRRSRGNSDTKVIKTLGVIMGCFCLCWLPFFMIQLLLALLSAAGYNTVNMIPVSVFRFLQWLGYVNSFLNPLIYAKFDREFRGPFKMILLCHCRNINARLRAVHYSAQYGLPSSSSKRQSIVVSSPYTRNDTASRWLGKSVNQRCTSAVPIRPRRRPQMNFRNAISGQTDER"}, "[2]": {"test_system": "forskolin evoked cAMP production in HEK293 cells lacking Sm.5HTRL", "experiment": "counter-screen of antagonist hits: forskolin evoked cAMP production in parental reporter line", "format": "cell-based"}, "human 5-HT2B receptor": {"test_system": "human 5-HT2B receptor", "parameters": "method as in Chan et al., 2017", "settings": "contracts host mesenteric vessels; ref Chan et al., 2017; cited from earlier work"}, "liver signaling pathways": {"test_system": "liver signaling pathways", "experiment": "Ingenuity Pathway Analysis of transcripts differentially expressed in drug treated livers relative to control infections", "format": "in vivo, mouse"}, "Sh.5HTR": {"molecular_target": "Sh.5HTR (Schistosoma haematobium, UniProt A0A922S615)", "format": "cell-based", "settings": "HEK293; maximal cAMP response relative to 5-HT"}, "Sj.5HTR": {"molecular_target": "Sj.5HTR (Schistosoma japonicum, UniProt A0A346LTY2)", "sequence (A0A346LTY2 entry or part of it)": "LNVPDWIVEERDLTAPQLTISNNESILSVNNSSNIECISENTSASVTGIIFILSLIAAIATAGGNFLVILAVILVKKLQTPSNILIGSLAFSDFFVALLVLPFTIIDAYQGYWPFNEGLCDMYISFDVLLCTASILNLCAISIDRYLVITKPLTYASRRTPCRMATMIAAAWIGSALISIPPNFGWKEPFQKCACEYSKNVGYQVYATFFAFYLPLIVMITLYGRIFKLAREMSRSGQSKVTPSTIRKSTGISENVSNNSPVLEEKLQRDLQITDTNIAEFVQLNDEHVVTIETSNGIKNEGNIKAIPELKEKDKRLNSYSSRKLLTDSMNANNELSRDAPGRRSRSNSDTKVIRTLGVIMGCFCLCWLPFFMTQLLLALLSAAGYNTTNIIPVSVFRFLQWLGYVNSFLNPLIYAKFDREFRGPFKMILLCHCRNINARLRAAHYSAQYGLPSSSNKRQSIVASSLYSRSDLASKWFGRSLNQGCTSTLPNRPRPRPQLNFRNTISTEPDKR", "experiment": "cell-based", "settings": "HEK293"}, "immature S. mansoni": {"test_system": "immature S. mansoni", "experiment": "movement of immature worms harvested 4 weeks post infection, ex vivo", "parameters": "species or system Schistosoma mansoni", "settings": "male worms 4 weeks post infection", "source_text": "Figure 6. […] Figure 6—figure supplement 1. […] Scale = 50 µm. [drawing 7]"}, "[3]": {"test_system": "adult S. mansoni male and female pairs", "experiment": "egg laying assay of worm pairs cultured ex vivo", "settings": "1 µM"}, "[4]": {"test_system": "S. mansoni (mature infection in Swiss Webster mice)", "experiment": "curative efficacy against mature infection in mice (survival, worm burden, egg counts, organ weights)"}, "[5]": {"test_system": "liver of S. mansoni infected mice", "experiment": "liver histology and immunohistochemistry of infected drug treated mice", "settings": "ergotamine 60 mg/kg"}, "[6]": {"test_system": "immature S. mansoni (infection in mice)", "experiment": "curative efficacy against immature infection in mice (dosing weeks 3-4 post infection)", "settings": "dosing 3–4 weeks post infection, worm burden at 7 weeks; ERG 60 mg/kg, PZQ 50 mg/kg"}, "[7]": {"test_system": "S. mansoni (mature infection in Swiss Webster mice)", "experiment": "hepatic shift assay in infected mice", "settings": "intraperitoneal, sacrificed three hours later; dose not given"}, "Sm.5HTRL [8]": {"molecular_target": "T1, Sm.5HTRL", "experiment": "cell-based", "settings": "HEK293"}, "[9]": {"test_system": "adult S. mansoni parasites", "experiment": "adult worm movement assay ex vivo", "parameters": "species or system Schistosoma mansoni", "settings": "Schistosoma mansoni; ex vivo, ± 95% confidence interval; read-out: EC50 for stimulation of adult schistosome movement"}},
  "data": [
    {"smiles": "C[C@@H]1CC[C@@]2(OC1)O[C@H]1[C@@H](O)[C@H]3[C@@H]4CC[C@H]5C[C@@H](O[C@@H]6O[C@H](CO)[C@H](O[C@@H]7O[C@H](CO)C(O)[C@H](O[C@@H]8OC[C@@H](O)[C@H](O)[C@H]8O)[C@H]7O[C@@H]7O[C@H](CO)[C@H](O)[C@H](O[C@@H]8O[C@H](CO)[C@@H](O)[C@H](O)[C@H]8O)[C@H]7O)[C@H](O)[C@H]6O)[C@H](O)C[C@]5(C)[C@H]4CC[C@]3(C)[C@H]1[C@@H]2C", "note": "(some centres unmarked) [ST069321]", "values": [
      {"measurement": "(+) Sm.5HTR 5-HT response (% of DMSO)", "setting": "Sm.5HTRL [1]", "result": "0.1068 % of DMSO"},
      {"measurement": "(-) Sm.5HTR Forskolin response (% of DMSO)", "setting": "[2]", "result": "0.15 % of DMSO"}
    ]},
    {"smiles": "O=C(C1CCCCC1)N1CC(=O)N2CCc3ccccc3[C@@H]2C1", "note": "[R-PZQ]", "values": [
      {"measurement": "type of activity at human 5-HT2B receptor", "setting": "human 5-HT2B receptor", "result": "partial agonist"}
    ]},
    {"smiles": "CN1C[C@H](C(=O)N[C@]2(C)O[C@@]3(O)[C@@H]4CCCN4C(=O)[C@H](Cc4ccccc4)N3C2=O)C=C2c3cccc4[nH]cc(c34)C[C@H]21", "note": "[ergotamine, Ergotamine]", "values": [
      {"measurement": "effect on gene products associated with HSC activation", "setting": "liver signaling pathways", "result": "down-regulated gene products associated with HSC activation"},
      {"measurement": "Emax", "setting": "Sh.5HTR", "result": "96 ± 5", "unit": "%"},
      {"measurement": "type of activity at schistosome 5-HTRs", "setting": "Sm.5HTRL [1]", "result": "full agonists"},
      {"measurement": "Emax", "setting": "Sj.5HTR", "result": "114 ± 3", "unit": "%"},
      {"measurement": "effect on movement of juvenile worms", "setting": "immature S. mansoni", "result": "stimulated movement of juvenile worms"},
      {"measurement": "morphology of eggs laid by treated worms", "setting": "[3]", "result": "often small and deformed"},
      {"measurement": "worm burden", "setting": "[4]; 60 mg/kg twice daily 42–49 days p.i., control 28 ± 8", "result": "9 ± 6", "unit": "worm pairs per mouse"},
      {"measurement": "reduction of worm burden", "setting": "[4]; 60 mg/kg twice daily 42–49 days p.i., p<0.002", "result": "~ 65%"},
      {"measurement": "reduction of infection-promoted increase in spleen mass", "setting": "[4]; 60 mg/kg twice daily 42–49 days p.i., relative to vehicle treated controls", "result": "55.8 ± 14.0", "unit": "%"},
      {"measurement": "reduction in intestinal egg burden", "setting": "[4]; ergotamine 60 mg/kg twice daily or PZQ 50 mg/kg, 42–49 days p.i.", "result": "96.3 ± 1.2", "unit": "%"},
      {"measurement": "effect on hepatosplenomegaly", "setting": "[4]; one week treatment starting at 42 days p.i.", "result": "prevented hepatosplenomegaly"},
      {"measurement": "granuloma formation and fibrosis in liver sections", "setting": "[5]", "result": "decreased granuloma formation and fibrosis"},
      {"measurement": "hepatic microvesicular steatosis / microvascular damage", "setting": "[5]; H and E staining", "result": "not observed"},
      {"measurement": "effect on immature infection", "setting": "[6]", "result": "did not resolve infections"},
      {"measurement": "percentage of worms in the liver", "setting": "[7]", "result": "75.1 ± 16.9", "unit": "%"},
      {"measurement": "Emax", "setting": "Sm.5HTRL [8]", "result": "95 ± 4", "unit": "%"},
      {"measurement": "EC50", "setting": "[9]", "result": "97.8 ± 31.6", "unit": "nM"}
    ]}
  ]
}
